From US10670605B2, “Cysteine reactive probes and uses thereof” (The Scripps Research Institute, priority 2015, dated 2020)

Tests used:
Assay in all cases: Competitive isoTOP-ABPP in situ (fragment-treated cells)
Assay type in all cases: cell-based
[1] = target: T1, cysteines in MDA-MB-231 and Ramos cells (Homo sapiens, UniProt O95336)
T1 sequence (O95336 1-258): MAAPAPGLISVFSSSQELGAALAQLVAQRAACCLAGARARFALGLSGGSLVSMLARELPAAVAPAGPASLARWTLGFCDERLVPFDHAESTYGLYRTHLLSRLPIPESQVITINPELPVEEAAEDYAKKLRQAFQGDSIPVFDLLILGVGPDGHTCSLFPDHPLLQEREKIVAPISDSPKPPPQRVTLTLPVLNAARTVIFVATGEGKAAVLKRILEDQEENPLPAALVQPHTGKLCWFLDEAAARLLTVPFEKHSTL

[2] = target: T2, cysteines in MDA-MB-231 and Ramos cells (Homo sapiens, UniProt P42224)
T2 sequence (P42224 1-750): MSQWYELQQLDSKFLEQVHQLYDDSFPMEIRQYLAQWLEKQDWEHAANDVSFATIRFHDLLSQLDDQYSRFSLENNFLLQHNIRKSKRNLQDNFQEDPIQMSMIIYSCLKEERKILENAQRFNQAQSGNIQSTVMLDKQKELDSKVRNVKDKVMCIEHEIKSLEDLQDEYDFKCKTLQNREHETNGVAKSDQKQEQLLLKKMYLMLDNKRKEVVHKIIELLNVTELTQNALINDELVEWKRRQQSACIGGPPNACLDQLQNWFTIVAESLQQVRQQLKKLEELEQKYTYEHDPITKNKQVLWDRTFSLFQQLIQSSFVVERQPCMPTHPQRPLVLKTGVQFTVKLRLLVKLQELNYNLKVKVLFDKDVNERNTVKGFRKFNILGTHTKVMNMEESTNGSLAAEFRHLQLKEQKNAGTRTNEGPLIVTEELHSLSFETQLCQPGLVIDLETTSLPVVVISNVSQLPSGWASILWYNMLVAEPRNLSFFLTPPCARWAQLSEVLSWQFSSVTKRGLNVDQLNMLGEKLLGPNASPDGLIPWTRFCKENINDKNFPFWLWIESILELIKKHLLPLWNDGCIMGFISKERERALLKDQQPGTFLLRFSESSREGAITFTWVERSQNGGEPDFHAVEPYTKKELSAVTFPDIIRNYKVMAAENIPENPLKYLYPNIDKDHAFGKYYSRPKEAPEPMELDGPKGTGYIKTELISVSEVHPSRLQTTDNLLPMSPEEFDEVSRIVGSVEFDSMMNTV

[3] = target: T3, cysteines in MDA-MB-231 and Ramos cells (Homo sapiens, UniProt P57764)
T3 sequence (P57764 1-484): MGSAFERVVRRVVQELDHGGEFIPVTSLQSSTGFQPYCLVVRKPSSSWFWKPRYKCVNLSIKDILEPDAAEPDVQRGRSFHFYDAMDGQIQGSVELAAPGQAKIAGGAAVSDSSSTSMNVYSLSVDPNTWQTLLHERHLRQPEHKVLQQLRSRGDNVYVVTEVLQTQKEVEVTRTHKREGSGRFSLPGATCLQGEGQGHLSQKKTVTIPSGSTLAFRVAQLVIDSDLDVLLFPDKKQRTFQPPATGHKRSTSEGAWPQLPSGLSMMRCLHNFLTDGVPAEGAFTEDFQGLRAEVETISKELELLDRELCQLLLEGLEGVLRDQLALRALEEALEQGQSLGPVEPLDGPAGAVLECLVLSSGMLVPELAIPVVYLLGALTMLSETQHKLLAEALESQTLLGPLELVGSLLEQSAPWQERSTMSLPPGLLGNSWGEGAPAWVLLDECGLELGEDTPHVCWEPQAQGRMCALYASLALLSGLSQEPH

[4] = target: cysteines in MDA-MB-231 and Ramos cells (Homo sapiens, UniProt P61978)
[5] = target: cysteines in MDA-MB-231 and Ramos cells (Homo sapiens, UniProt Q14997)
Chain of cysteines in MDA-MB-231 and Ramos cells (Homo sapiens, UniProt Q14997) (Q14997 whole entry): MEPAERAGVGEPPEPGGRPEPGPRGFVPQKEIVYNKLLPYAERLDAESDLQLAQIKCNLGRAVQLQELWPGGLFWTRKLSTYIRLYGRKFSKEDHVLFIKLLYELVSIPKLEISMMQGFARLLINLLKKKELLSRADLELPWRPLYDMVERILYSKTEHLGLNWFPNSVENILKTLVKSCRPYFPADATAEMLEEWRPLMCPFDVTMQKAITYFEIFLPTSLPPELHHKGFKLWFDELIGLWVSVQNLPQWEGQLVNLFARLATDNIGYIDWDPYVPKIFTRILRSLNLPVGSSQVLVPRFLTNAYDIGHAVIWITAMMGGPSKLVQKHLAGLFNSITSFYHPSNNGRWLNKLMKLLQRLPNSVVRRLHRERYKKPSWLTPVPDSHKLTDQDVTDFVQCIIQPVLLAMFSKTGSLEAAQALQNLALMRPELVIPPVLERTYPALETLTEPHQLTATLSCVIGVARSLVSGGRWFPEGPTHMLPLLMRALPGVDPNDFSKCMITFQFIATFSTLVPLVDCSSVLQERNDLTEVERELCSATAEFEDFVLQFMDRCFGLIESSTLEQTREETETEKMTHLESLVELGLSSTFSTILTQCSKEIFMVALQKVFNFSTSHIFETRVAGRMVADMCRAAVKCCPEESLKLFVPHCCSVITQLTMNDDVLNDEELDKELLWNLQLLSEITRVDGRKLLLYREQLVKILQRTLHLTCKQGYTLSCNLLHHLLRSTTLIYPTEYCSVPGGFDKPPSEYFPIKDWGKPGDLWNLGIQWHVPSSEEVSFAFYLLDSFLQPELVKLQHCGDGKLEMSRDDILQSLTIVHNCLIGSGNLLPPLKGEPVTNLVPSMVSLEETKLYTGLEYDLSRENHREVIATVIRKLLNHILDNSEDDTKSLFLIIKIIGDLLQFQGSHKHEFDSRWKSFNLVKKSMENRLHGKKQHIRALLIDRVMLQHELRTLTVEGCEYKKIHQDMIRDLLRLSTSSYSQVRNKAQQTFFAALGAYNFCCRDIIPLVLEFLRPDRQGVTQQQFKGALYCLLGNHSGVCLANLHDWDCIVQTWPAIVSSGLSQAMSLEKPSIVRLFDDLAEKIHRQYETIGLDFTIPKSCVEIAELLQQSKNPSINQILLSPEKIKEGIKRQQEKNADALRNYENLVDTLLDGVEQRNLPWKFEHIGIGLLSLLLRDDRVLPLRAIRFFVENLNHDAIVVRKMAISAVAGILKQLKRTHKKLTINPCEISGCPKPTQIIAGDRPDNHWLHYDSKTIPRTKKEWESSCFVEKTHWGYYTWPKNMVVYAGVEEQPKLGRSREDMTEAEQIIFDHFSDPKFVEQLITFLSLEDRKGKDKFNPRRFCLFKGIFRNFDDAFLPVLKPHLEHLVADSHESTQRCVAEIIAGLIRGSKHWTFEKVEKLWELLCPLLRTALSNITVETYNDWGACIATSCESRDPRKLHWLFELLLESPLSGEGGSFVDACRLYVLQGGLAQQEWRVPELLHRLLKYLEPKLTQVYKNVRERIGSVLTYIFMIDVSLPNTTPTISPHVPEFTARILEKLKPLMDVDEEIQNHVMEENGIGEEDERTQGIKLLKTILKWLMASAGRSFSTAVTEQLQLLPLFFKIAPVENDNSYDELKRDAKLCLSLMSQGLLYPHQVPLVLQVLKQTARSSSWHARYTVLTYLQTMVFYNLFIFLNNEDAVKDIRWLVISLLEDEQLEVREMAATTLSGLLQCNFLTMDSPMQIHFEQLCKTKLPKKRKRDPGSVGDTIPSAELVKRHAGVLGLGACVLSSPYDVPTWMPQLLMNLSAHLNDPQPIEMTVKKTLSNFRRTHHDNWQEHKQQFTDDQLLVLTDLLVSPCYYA

[6] = target: cysteines in MDA-MB-231 and Ramos cells (Homo sapiens, UniProt Q15365)
Chain of cysteines in MDA-MB-231 and Ramos cells (Homo sapiens, UniProt Q15365) (Q15365 whole entry): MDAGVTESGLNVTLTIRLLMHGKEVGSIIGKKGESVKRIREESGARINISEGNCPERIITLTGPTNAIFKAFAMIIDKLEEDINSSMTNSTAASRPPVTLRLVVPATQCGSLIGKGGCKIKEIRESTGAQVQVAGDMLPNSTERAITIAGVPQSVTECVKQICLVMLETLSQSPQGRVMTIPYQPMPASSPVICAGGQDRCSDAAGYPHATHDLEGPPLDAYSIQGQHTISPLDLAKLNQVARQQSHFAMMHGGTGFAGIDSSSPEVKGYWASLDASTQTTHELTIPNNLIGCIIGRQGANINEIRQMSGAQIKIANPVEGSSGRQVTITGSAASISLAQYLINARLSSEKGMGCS

[7] = target: T4, cysteines in MDA-MB-231 and Ramos cells (Homo sapiens, UniProt Q9BVC5)
T4 sequence (Q9BVC5 1-232): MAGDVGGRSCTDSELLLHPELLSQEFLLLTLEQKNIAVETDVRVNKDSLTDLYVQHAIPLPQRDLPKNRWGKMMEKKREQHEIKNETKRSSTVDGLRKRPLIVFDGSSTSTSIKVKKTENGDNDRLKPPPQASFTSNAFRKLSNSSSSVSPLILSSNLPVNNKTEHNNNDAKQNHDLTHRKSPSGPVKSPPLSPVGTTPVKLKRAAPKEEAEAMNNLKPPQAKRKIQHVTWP

isoTOP-ABPP ratio P42224_C492 ([2]; 200 μM, insitu, 231)	isoTOP-ABPP ratio P61978_C132 ([4]; 200 μM, insitu, 231)	isoTOP-ABPP ratio Q14997_C1840 ([5]; 200 μM, insitu, 231)	isoTOP-ABPP ratio Q15365_C194 ([6]; 200 μM, insitu, 231)	isoTOP-ABPP ratio Q9BVC5_C10 ([7]; 200 μM, insitu, 231)	isoTOP-ABPP ratio O95336_C32 ([1]; 200 μM, insitu, 231)	isoTOP-ABPP ratio P57764_C268 ([3]; 200 μM, insitu, 231)	SMILES	further results
0.7	1.4	1.0	1.1	1.5	0.9	0.7	O=C(CCl)NC12CC3CC(CC(C3)C1)C2 [compound 21]	–
–	0.9	20.0	0.5	1.1	0.5	0.6	CC(C)CCOCCNC(=O)CCl [compound 27]	–
0.8	1.0	0.9	–	0.9	–	–	COc1ccccc1OCCNC(=O)CCl [compound 28]	–
0.8	0.9	–	0.7	–	–	–	C=CC(=O)N(Cc1cccnc1)c1cc(C(F)(F)F)cc(C(F)(F)F)c1 [compound 31]	isoTOP-ABPP ratio O95336_C32 ([1]; 200 μM, insitu, ramos): 1.7; isoTOP-ABPP ratio P42224_C492 ([2]; 200 μM, insitu, ramos): 1.9; isoTOP-ABPP ratio P57764_C268 ([3]; 200 μM, insitu, ramos): 3.1; isoTOP-ABPP ratio P61978_C132 ([4]; 200 μM, insitu, ramos): 1.1; isoTOP-ABPP ratio Q14997_C1840 ([5]; 200 μM, insitu, ramos): 1.2; isoTOP-ABPP ratio Q15365_C194 ([6]; 200 μM, insitu, ramos): 1.6
–	1.0	20.0	15	0.9	2.8	1.8	C=CC(=O)Nc1cc(F)c(N2CCN(C(=O)OC(C)(C)C)CC2)c(F)c1 [compound 38]	–
0.6	0.9	0.9	0.3	1.0	0.6	0.6	Cc1ccc(C=C(C#N)C(=O)NCCN2CCOCC2)cc1 [compound 41]	–
20.0	9.3	–	1.5	3.4	–	20.0	CC1CCc2ccccc2N1C(=O)CCl (stereo not shown) [compound 45]	–
2.4	1.2	20.0	0.6	1.0	–	1.8	O=C(CCl)Nc1cccc2ncccc12 [compound 51]	–

The remaining lines, values behind:

SMILES	isoTOP-ABPP ratio P42224_C492 ([2]; 200 μM, insitu, 231)	isoTOP-ABPP ratio P61978_C132 ([4]; 200 μM, insitu, 231)	isoTOP-ABPP ratio Q14997_C1840 ([5]; 200 μM, insitu, 231)	isoTOP-ABPP ratio Q15365_C194 ([6]; 200 μM, insitu, 231)	isoTOP-ABPP ratio Q9BVC5_C10 ([7]; 200 μM, insitu, 231)	isoTOP-ABPP ratio O95336_C32 ([1]; 200 μM, insitu, 231)	isoTOP-ABPP ratio P57764_C268 ([3]; 200 μM, insitu, 231)	further results
COc1ccc2c(c1)CCCN2C(=O)CCl [compound 2]	–	–	–	–	–	–	–	isoTOP-ABPP reactivity O95336_C32 PGLS ([1]; 200 μM, insitu, 231): 14.9; isoTOP-ABPP reactivity P42224_C492 STAT1 ([2]; 200 μM, insitu, 231): 16.9; isoTOP-ABPP reactivity P57764_C268 GSDMD ([3]; 200 μM, insitu, 231): 20.0; isoTOP-ABPP reactivity P61978_C132 HNRNPK ([4]; 200 μM, insitu, 231): 5.0; isoTOP-ABPP reactivity Q14997_C1840 PSME4 ([5]; 200 μM, insitu, 231): 2.8; isoTOP-ABPP reactivity Q15365_C194 PCBP1 ([6]; 200 μM, insitu, 231): 5.1; isoTOP-ABPP reactivity Q9BVC5_C10 C2orf49 ([7]; 200 μM, insitu, 231): 2.7
COc1ccc(C2CC(c3cccs3)=NN2C(=O)CCl)cc1 (stereo not shown) [compound 4]	–	–	–	–	–	–	–	isoTOP-ABPP reactivity P57764_C268 GSDMD ([3]; 100 μM in situ 231): 20.0; isoTOP-ABPP reactivity P61978_C132 HNRNPK ([4]; 100 μM in situ 231): 3.8; isoTOP-ABPP reactivity Q14997_C1840 PSME4 ([5]; 100 μM in situ 231): 20.0; isoTOP-ABPP reactivity Q15365_C194 PCBP1 ([6]; 100 μM in situ 231): 1.4; isoTOP-ABPP reactivity Q9BVC5_C10 C2orf49 ([7]; 100 μM in situ 231): 3.3
COc1cc2c(cc1OC)CN(C(=O)CCl)CC2 [compound 8]	–	–	–	–	–	–	–	isoTOP-ABPP reactivity O95336_C32 PGLS ([1]; 200 μM, insitu, 231): 20.0; isoTOP-ABPP reactivity P57764_C268 GSDMD ([3]; 200 μM, insitu, 231): 8.4; isoTOP-ABPP reactivity P61978_C132 HNRNPK ([4]; 200 μM, insitu, 231): 4.2; isoTOP-ABPP reactivity Q14997_C1840 PSME4 ([5]; 200 μM, insitu, 231): 20.0; isoTOP-ABPP reactivity Q15365_C194 PCBP1 ([6]; 200 μM, insitu, 231): 1.4; isoTOP-ABPP reactivity Q9BVC5_C10 C2orf49 ([7]; 200 μM, insitu, 231): 4.5
O=C(CCl)N1CCC(Cc2ccccc2)CC1 [compound 9]	–	–	–	–	–	–	–	isoTOP-ABPP reactivity O95336_C32 PGLS ([1]; 200 μM, insitu, 231): 6.7; isoTOP-ABPP reactivity P42224_C492 STAT1 ([2]; 200 μM, insitu, 231): 3.1; isoTOP-ABPP reactivity P61978_C132 HNRNPK ([4]; 200 μM, insitu, 231): 1.4; isoTOP-ABPP reactivity Q15365_C194 PCBP1 ([6]; 200 μM, insitu, 231): 10.1
O=C(CCl)N1CCN(S(=O)(=O)c2ccccc2F)CC1 [compound 10]	20.0	5.6	20.0	1.6	3.1	–	–	isoTOP-ABPP ratio P57764_C268 ([3]; 200 μM, insitu, ramos): 2.2; isoTOP-ABPP ratio P61978_C132 ([4]; 200 μM, insitu, ramos): 1.6; isoTOP-ABPP ratio Q15365_C194 ([6]; 200 μM, insitu, ramos): 2.0
Cn1cc(S(=O)(=O)N2CCOCC2)cc1C(=O)NC(=O)CCl [compound 11]	–	–	–	–	–	–	–	isoTOP-ABPP ratio O95336_C32 ([1]; 100 μM in situ 231): 0.9; isoTOP-ABPP ratio P42224_C492 ([2]; 100 μM in situ 231): 0.7; isoTOP-ABPP ratio P57764_C268 ([3]; 100 μM in situ 231): 0.7; isoTOP-ABPP ratio P61978_C132 ([4]; 100 μM in situ 231): 0.9; isoTOP-ABPP ratio Q15365_C194 ([6]; 100 μM in situ 231): 0.4; isoTOP-ABPP ratio Q9BVC5_C10 ([7]; 100 μM in situ 231): 1.1
O=C(CCl)NC(=O)NC12CC3CC(CC(C3)C1)C2 [compound 12]	1.0	7.5	20.0	1.3	2.9	20.0	–	–
O=C(CCl)NCCc1c[nH]c2ccccc12 [compound 13]	1.0	1.1	0.9	0.9	1.6	1.6	–	isoTOP-ABPP ratio O95336_C32 ([1]; 200 μM, insitu, ramos): 2.2; isoTOP-ABPP ratio P57764_C268 ([3]; 200 μM, insitu, ramos): 1.5; isoTOP-ABPP ratio P61978_C132 ([4]; 200 μM, insitu, ramos): 1.1; isoTOP-ABPP ratio Q14997_C1840 ([5]; 200 μM, insitu, ramos): 1.6; isoTOP-ABPP ratio Q15365_C194 ([6]; 200 μM, insitu, ramos): 1.4
O=C(CCl)N1CCN(CC(=O)N2CCOCC2)CC1 [compound 29]	–	–	–	–	–	–	–	isoTOP-ABPP ratio O95336_C32 ([1]; 200 μM, insitu, ramos): 3.0; isoTOP-ABPP ratio P42224_C492 ([2]; 200 μM, insitu, ramos): 3.8; isoTOP-ABPP ratio P57764_C268 ([3]; 200 μM, insitu, ramos): 1.1; isoTOP-ABPP ratio P61978_C132 ([4]; 200 μM, insitu, ramos): 1.2; isoTOP-ABPP ratio Q15365_C194 ([6]; 200 μM, insitu, ramos): 1.0; isoTOP-ABPP ratio Q9BVC5_C10 ([7]; 200 μM, insitu, ramos): 1.8
